In patent US10124012B2, “Method for treatment of hyperglycemia and hyperlipidemia” (priority 2016, dated 2018):

Columns and labels:
Type in all cases: in vivo, C57BL/6J mice
[1] = system: high-fat diet-fed C57BL/6J mouse; assay: Body weight, tissue weights and food intake in HFD-fed mice; details: for Absolute tissue weight Visceral fat: sum of EWAT and RWAT
Text: (§1) The 4-week old male C57BL/6J mice (total amount n=63) were obtained from the National Laboratory Animal Center (Taipei, Taiwan). After acclimatization for one week, all of the mice were randomly assigned into a control (CON) group and a high-fat diet (HFD) group. […] After HFD feeding for 8 weeks, the HFD group was randomly subdivided into six groups (n=9 per group) receiving different treatments and fed on HFD. […] The HF+AnK1, HF+AnK2, and HF+AnK3 groups are collectively termed AnK-treated HFD groups in the following examples. The CON mice were administered vehicle. All treatments were administered via oral gavage once daily. After administration for 4 weeks, all mice were fasted 12 hours, and blood was collected from the retro-orbital sinus under ether anesthesia. At the end of the experiment, the mice were sacrificed via carbon dioxide inhalation. Liver, adipose tissue, and skeletal muscle were collected and immediately stored at −80° C. for target gene analysis.
The metabolic parameters, including body weight, weight gain, and food intake, were performed as the following. Body weight was daily measured at the same time throughout the study. Body weight gain is considered as the weight difference between two consecutive days. The amount of pellet food was weighted, followed by weighting the amount of remaining food after 24 hours. The difference between the two weights is defined as daily food intake.

G6Pase = assay: Liver mRNA by semi-quantitative RT-PCR: G6Pase; details: HFD-fed mice, oral gavage once daily 4 weeks, AnK 10, 20, 40, Feno 250, Metf 300 mg/kg/day, vs HF group
Text: as §1, with “At the end of the experiment, the mice were sacrificed via carbon dioxide inhalation. Liver, adipose tissue, and skeletal muscle were collected and immediately stored at −80° C. for target gene analysis.” left out
(§2) Total RNA from liver tissue of mice was isolated with a Trizol Reagent (Molecular Research Center, Inc., Cincinnati, Ohio, USA) according to the manufacturer's instructions. The integrity of the extracted total RNA was examined by 2% agarose gel electrophoresis, and the RNA concentration was determined by the ultraviolet (UV) light absorbency at 260 nm and 280 nm (Spectrophotometer U-2800A, Hitachi). […]
(§3) Levels of mRNA of target genes were quantified by semi-quantitative reverse transcription polymerase chain reaction (RT-PCR). […] PCR products were analyzed by 2% agarose gel and stained with ethidium bromide.

SREBP1c = assay: Liver mRNA by semi-quantitative RT-PCR: SREBP1c; details: HFD-fed mice, oral gavage once daily 4 weeks, AnK 10, 20, 40, Feno 250, Metf 300 mg/kg/day, vs HF group
Text: as §1, with “At the end of the experiment, the mice were sacrificed via carbon dioxide inhalation. Liver, adipose tissue, and skeletal muscle were collected and immediately stored at −80° C. for target gene analysis.” left out
as §2, §3

SREBP2 = assay: Liver mRNA by semi-quantitative RT-PCR: SREBP2; details: HFD-fed mice, oral gavage once daily 4 weeks, AnK 10, 20, 40, Feno 250, Metf 300 mg/kg/day, vs HF group
Text: as §1, with “At the end of the experiment, the mice were sacrificed via carbon dioxide inhalation. Liver, adipose tissue, and skeletal muscle were collected and immediately stored at −80° C. for target gene analysis.” left out
as §2, §3

PPARα = assay: Liver mRNA by semi-quantitative RT-PCR: PPARα; details: HFD-fed mice, oral gavage once daily 4 weeks, AnK 10, 20, 40, Feno 250, Metf 300 mg/kg/day, vs HF group
Text: as §1, with “At the end of the experiment, the mice were sacrificed via carbon dioxide inhalation. Liver, adipose tissue, and skeletal muscle were collected and immediately stored at −80° C. for target gene analysis.” left out
as §2, §3

[2] = system: phospho-AMPK (Thr^172)/total-AMPK; assay: Western blotting of phospho-AMPK/total-AMPK in skeletal muscle and liver; details: HFD-induced reduction, AnK 10, 20, 40, Feno 250, Metf 300 mg/kg/day, vs HF group
Text: as §1
(§4) About 0.1 g of liver tissue, skeletal muscle, or adipose tissue was used for the homogenate samples. Samples were powdered under liquid nitrogen and homogenized for 20 seconds in 500 μL buffer containing 20 mM Tris-HCl (pH 7.4 at 4° C.), 2% SDS, 5 mM EDTA, 5 mM EGTA, 1 mM dithiothreitol (DTT), 100 mM NaF, 2 mM sodium vanadate, 0.5 mM phenylmethylsulfonyl fluoride, 10 μg/mL leupeptin, and 10 μL/mL pepstatin. The total membrane fraction was used for measurement. The protein concentration in supernatant was determined with a BCA protein assay kit (Thermo Scientific, Rockford, Ill., USA). […] The membrane was blocked with 5% slim milk in Tris-buffered saline (TBS)(Amersham BioSciences, Uppsala, Sweden) containing 0.05% Tween-20 (Bio Rad, CA, USA) and incubated overnight at 4° C. with antibodies at 1:200 dilution. Subsequently, the membrane was washed three times with TBS containing 0.05% Tween-20 and incubated with secondary antibody anti-rabbit (1:1000)(Jackson ImmunoResearch Laboratories, Inc., PA, USA) for 1 hour. Immunoreactive bands were detected with ECL reagent kit (GE Healthcare BioSciences, Buckinghamshire, UK). The intensity of Western blot signals was analyzed using AlphaEase FC software (Alpha Innotech Corporation, Randburg, South Africa). The structural protein GAPDH in the samples was used as the loading control.

[3] = system: phospho-Akt (Ser^473)/total-Akt; assay: Western blotting of phospho-Akt/total-Akt in skeletal muscle and liver; details: HFD-induced reduction, AnK 10, 20, 40, Feno 250, Metf 300 mg/kg/day, vs HF group
Text: as §1, §4

FAS = assay: Western blotting of FAS in liver and adipose tissue; details: HFD-fed mice, AnK 10, 20, 40, Feno 250, Metf 300 mg/kg/day, vs HF group; for expression levels of FAS (protein): adipose tissue; for FAS expression levels (protein): liver
Text: as §1, §4

[4] = HF + AnK1: AnK 10 mg/kg/day oral gavage 4 weeks
[5] = HF + AnK2: AnK 20 mg/kg/day oral gavage 4 weeks
[6] = HF + AnK3: AnK 40 mg/kg/day oral gavage 4 weeks
[7] = HF + Metf: metformin 300 mg/kg/day oral gavage 4 weeks

`C=C(CC[C@@H](C)[C@H]1CC[C@H]2C3=C(C(=O)C[C@]12C)[C@@]1(C)CC[C@@H](O)[C@](C)(O)[C@@H]1C[C@@H]3O)C(C)C(=O)O` (stereo partly drawn) [AnK, 3α,4β,7β-trihydroxy-4α-methylergosta-8,24(28)-dien-11-on-25S-26-oic acid] was tested, and the “Absolute tissue weight BAT” value [1, 4] was 0.178 ± 0.007 g, the “Absolute tissue weight EWAT” value [1, 4] was 0.867 ± 0.065 g and the “Absolute tissue weight Liver” value [1, 4] was 0.946 ± 0.030 g. The “Absolute tissue weight MWAT” value [1, 4] was 0.349 ± 0.020 g, the “Absolute tissue weight RWAT” value [1, 4] was 0.323 ± 0.039 g and the “Absolute tissue weight Skeletal muscle” value [1, 4] was 0.395 ± 0.036 g. For the same compound, the “Absolute tissue weight Spleen” value [1, 4] was 0.090 ± 0.003 g, the Final body weight [1, 4] was 28.30 ± 0.61 g and the Food intake [1, 4] was 1.95 ± 0.05 g/day/mouse. The Weight gain [1, 4] was 1.39 ± 0.81 g, the “Absolute tissue weight BAT” value [1, 5] was 0.172 ± 0.010 g and the “Absolute tissue weight EWAT” value [1, 5] was 0.841 ± 0.062 g. The “Absolute tissue weight Liver” value [1, 5] was 0.888 ± 0.019 g, the “Absolute tissue weight MWAT” value [1, 5] was 0.340 ± 0.013 g and the “Absolute tissue weight RWAT” value [1, 5] was 0.339 ± 0.031 g. The “Absolute tissue weight Skeletal muscle” value [1, 5] was 0.364 ± 0.022 g, the “Absolute tissue weight Spleen” value [1, 5] was 0.085 ± 0.003 g and the Final body weight [1, 5] was 27.55 ± 0.72 g. For the same compound, the Food intake [1, 5] was 1.92 ± 0.07 g/day/mouse, the Weight gain [1, 5] was 0.70 ± 0.86 g and the “Absolute tissue weight BAT” value [1, 6] was 0.175 ± 0.008 g. For the same compound, the “Absolute tissue weight EWAT” value [1, 6] was 0.809 ± 0.058 g, the “Absolute tissue weight Liver” value [1, 6] was 0.883 ± 0.018 g and the “Absolute tissue weight MWAT” value [1, 6] was 0.332 ± 0.025 g. For the same compound, the “Absolute tissue weight RWAT” value [1, 6] was 0.306 ± 0.040 g, the “Absolute tissue weight Skeletal muscle” value [1, 6] was 0.364 ± 0.028 g and the “Absolute tissue weight Spleen” value [1, 6] was 0.104 ± 0.007 g. The Final body weight [1, 6] was 27.48 ± 0.46 g, the Food intake [1, 6] was 1.98 ± 0.04 g/day/mouse and the Weight gain [1, 6] was 0.58 ± 0.35 g. For the same compound, the “Absolute tissue weight Visceral fat” value [1, 4] was 1.190 ± 0.093 g, the “Absolute tissue weight Visceral fat” value [1, 5] was 1.180 ± 0.106 g and the “Absolute tissue weight Visceral fat” value [1, 6] was 1.154 ± 0.096 g. For the same compound, the “mRNA levels of G6Pase” value (G6Pase) was “significantly decreased”, the “mRNA levels of SREBP1c” value (SREBP1c) was “significantly decreased” and the “mRNA levels of SREBP2” value (SREBP2) was “significantly decreased”. The “PPARα mRNA levels” value (PPARα) was “increased”, the “expression levels of phospho-AMPK/total-AMPK” value ([2]; liver) was “significantly reversed” and the “expression levels of phospho-AMPK/total-AMPK” value ([2]; skeletal muscle) was “significantly reversed”. For the same compound, the “expression levels of phosphor-Akt/total-Akt” value ([3]; liver) was “significantly reversed”, the “expression levels of phosphor-Akt/total-Akt” value ([3]; skeletal muscle) was “significantly reversed” and the “expression levels of FAS (protein)” value (FAS) was “significantly reduced”. The “FAS expression levels (protein)” value (FAS) was “decreased”.

In the case of `CN(C)C(=N)N=C(N)N` [Metf, metformin, reference compound], the “Absolute tissue weight BAT” value [1, 7] is reported as 0.220 ± 0.025 g, the “Absolute tissue weight EWAT” value [1, 7] is reported as 0.813 ± 0.064 g and the “Absolute tissue weight Liver” value [1, 7] is reported as 0.908 ± 0.031 g. The “Absolute tissue weight MWAT” value [1, 7] was 0.270 ± 0.018 g, the “Absolute tissue weight RWAT” value [1, 7] was 0.298 ± 0.027 g and the “Absolute tissue weight Skeletal muscle” value [1, 7] was 0.380 ± 0.025 g. For the same compound, the “Absolute tissue weight Spleen” value [1, 7] was 0.093 ± 0.006 g, the Final body weight [1, 7] was 27.86 ± 0.72 g and the Food intake [1, 7] was 1.89 ± 0.04 g/day/mouse. The Weight gain [1, 7] was 0.92 ± 0.08 g, the “Absolute tissue weight Visceral fat” value [1, 7] was 1.111 ± 0.077 g and the “mRNA levels of G6Pase” value (G6Pase) was “significantly decreased”. For the same compound, the “mRNA levels of SREBP1c” value (SREBP1c) was “significantly decreased”, the “mRNA levels of SREBP2” value (SREBP2) was “significantly decreased” and the “PPARα mRNA levels” value (PPARα) was “increased”. For the same compound, the “expression levels of phospho-AMPK/total-AMPK” value ([2]; liver) was “significantly reversed”, the “expression levels of phospho-AMPK/total-AMPK” value ([2]; skeletal muscle) was “significantly reversed” and the “expression levels of phosphor-Akt/total-Akt” value ([3]; liver) was “significantly reversed”. For the same compound, the “expression levels of phosphor-Akt/total-Akt” value ([3]; skeletal muscle) was “significantly reversed”, the “expression levels of FAS (protein)” value (FAS) was “significantly reduced” and the “FAS expression levels (protein)” value (FAS) was “decreased”.
